The record followed here is patent US12421225B2, “Heteroaromatic amide derivative and medicament containing the same” (KAKEN PHARMACEUTICAL CO., LTD., priority 2018, dated 2025).

A value given as a limit tells only on which side of the number the result lay.

The target in one experiment is human Nav1.7 (Homo sapiens (Human), UniProt Q15858). Briefly: Human Nav1.7 inhibitory activity evaluation (automated patch clamp QPatch16X, HEK293A cells stably expressing human Nav1.7 and human Navβ1). Particulars: HEK293A cells stably expressing human Nav1.7 and human Navβ1, automated patch clamp QPatch16X. The experiment is classed as cell-based. On the procedure: Test Example 1: Human Nav1.7 Inhibitory Activity Evaluation
Sequence of human Nav1.7 (Q15858 whole entry): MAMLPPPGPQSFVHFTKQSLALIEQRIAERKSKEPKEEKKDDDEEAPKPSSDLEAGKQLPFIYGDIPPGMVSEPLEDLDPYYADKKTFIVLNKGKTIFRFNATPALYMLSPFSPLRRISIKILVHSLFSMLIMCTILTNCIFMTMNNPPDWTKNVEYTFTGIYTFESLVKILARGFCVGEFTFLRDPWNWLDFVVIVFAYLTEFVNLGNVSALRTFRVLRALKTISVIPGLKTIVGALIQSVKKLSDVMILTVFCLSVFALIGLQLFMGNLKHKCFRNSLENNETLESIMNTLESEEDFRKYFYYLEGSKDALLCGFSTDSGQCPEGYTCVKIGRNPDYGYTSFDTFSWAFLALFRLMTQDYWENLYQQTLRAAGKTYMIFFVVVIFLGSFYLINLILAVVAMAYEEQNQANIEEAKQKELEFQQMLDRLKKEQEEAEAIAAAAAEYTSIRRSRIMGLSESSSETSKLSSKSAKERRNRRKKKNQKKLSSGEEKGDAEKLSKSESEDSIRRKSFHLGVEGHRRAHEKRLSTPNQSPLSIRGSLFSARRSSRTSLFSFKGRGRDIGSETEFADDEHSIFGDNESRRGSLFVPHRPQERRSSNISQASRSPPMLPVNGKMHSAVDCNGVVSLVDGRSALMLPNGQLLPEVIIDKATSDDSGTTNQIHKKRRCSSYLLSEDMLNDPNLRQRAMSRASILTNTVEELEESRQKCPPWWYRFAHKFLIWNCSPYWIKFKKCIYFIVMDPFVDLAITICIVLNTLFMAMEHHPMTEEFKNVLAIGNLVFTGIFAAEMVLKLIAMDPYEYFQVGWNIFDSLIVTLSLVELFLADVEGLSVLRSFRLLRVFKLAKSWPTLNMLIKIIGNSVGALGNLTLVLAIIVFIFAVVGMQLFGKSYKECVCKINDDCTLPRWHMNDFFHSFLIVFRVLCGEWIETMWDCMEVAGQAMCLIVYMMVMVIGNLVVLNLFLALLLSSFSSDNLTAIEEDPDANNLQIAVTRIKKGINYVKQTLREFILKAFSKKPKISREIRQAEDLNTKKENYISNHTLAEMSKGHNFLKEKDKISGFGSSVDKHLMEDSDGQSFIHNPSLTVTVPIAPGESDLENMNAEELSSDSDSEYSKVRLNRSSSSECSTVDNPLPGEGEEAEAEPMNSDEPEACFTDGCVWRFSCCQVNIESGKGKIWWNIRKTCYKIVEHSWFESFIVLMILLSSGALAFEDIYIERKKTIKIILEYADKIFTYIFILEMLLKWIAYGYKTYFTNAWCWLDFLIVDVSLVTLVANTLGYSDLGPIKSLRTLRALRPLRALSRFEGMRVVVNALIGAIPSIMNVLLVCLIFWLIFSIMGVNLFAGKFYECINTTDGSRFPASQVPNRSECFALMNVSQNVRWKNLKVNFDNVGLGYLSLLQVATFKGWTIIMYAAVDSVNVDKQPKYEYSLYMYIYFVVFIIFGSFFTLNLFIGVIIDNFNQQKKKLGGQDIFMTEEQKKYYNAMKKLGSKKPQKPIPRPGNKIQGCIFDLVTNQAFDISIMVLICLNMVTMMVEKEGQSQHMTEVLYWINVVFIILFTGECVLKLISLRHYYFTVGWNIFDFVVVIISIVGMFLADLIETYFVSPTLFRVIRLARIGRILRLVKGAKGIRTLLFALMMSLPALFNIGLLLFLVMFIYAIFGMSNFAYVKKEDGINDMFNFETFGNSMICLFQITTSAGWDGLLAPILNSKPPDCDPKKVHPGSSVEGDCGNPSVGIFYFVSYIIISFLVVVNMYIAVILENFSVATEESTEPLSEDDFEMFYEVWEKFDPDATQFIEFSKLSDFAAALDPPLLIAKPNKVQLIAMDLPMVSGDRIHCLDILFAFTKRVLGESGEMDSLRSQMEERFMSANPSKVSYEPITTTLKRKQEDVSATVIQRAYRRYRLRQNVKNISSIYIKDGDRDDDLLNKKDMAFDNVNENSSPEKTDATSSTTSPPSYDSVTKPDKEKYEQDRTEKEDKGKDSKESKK
Sequence of human Nav1.7 (Q07699 19-218 partner): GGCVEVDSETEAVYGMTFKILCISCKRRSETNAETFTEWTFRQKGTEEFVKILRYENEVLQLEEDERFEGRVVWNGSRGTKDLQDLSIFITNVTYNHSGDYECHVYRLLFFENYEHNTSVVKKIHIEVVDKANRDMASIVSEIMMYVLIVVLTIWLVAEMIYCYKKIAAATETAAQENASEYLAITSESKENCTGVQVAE
A cell line in which human Nav1.7 and human Navβ1 subunits were stably expressed in HEK293A cells was used. Dulbecco's Modified Eagle Medium (DMEM) supplemeted with 10% fetal bovine serum, 600 μg/ml geneticin, and 2 μg/ml blasticidin S were used as culture medium under the conditions of 37° C. and 5% CO2 in T175 flasks to carry out culturing. When 60-80% confluence was reached, the cells were detached and a cell suspension of about 0.5-5.0×10^6 cells/mL was prepared. The amount of current through human Nav1.7 was recorded using a fully automatic patch clamp device QPatch16X (Sophion Biosciences) at room temperature. As the extracellular solution, the solution of 145 mM NaCl, 4 mM KCl, 1 mM MgCl2, 2 mM CaCl2, 10 mM Glucose, 10 mM 4-(2-hydroxyethyl)-1-piperazine ethanesulfonic acid (HEPES) at pH 7.4 was used. As the intracellular solution, the solution of 135 mM CsF, ⅕ mM glycol ether diaminetetraacetic acid (EGTA)/CsOH, 10 mM HEPES, 10 mM NaCl at pH 7.3 was used. The test compounds were dissolved in dimethyl sulfoxide (DMSO) and diluted with the extracellular solution to attain the DMSO concentration of 0.1% at the time of assay.
The current response was obtained at a sampling frequency of 25 kHz, and noise was removed with a 3 kHz low-pass filter. The holding potential was −100 mV. Correction of the leakage current was carried out by applying a step pulse of −120 mV before the test pulse. In order to investigate inhibitory action of the test compound, the following test pulse was given: Namely, after depolarizing pulse of −10 mV was applied for 50 milliseconds, it was fixed at −120 mV for 500 milliseconds; a potential at which about 30-40% of the channel was inactivated was maintained for 15 seconds, then fixed again at −120 mV for 100 milliseconds, and finally a −10 mV depolarization pulse was given for 50 milliseconds. Test pulses were given before and after the test compound addition.
The inhibitory activity of the test compound was determined based on the amount of inward current generated by the second depolarization pulse, and the 50% inhibitory concentration (IC50) was calculated from the concentration-response curve.
(In general: The patch-clamp technique gives a direct electrical read-out from membranes.)
Take `N#Cc1ccc2c(c1)C[C@@H](NC(=O)c1cc3n(n1)CCC(CC1CC1)O3)CO2` (single isomer, unassigned) [97 (isomer A)]: the IC50 (commonly the midpoint of a concentration-inhibition curve) is below 1 µM. Same read-out and setting: for `O=C(N[C@H]1COc2ccc(CC(F)F)cc2C1)c1cc2n(n1)CCC(COC(F)F)O2` (single isomer, unassigned) [138 (isomer A)] the value was below 1 µM. On the same count and under the same terms, the same measure for `O=C(N[C@H]1COc2ccc(CC(F)F)cc2C1)c1cc2n(n1)CCC(COC(F)F)O2` (single isomer, unassigned) [138 (isomer B)]: below 10 µM.

The experiment is the same for the next values; noted with them: human Nav1.7, automated patch clamp.
`O=C(N[C@H]1COc2ccc(COCC(F)(F)F)cc2C1)c1cc2n(n1)CC(CC1CCOCC1)O2` (mixture of isomers) [Example 605]: the 50% inhibitory concentration (IC50) is below 1 µM. Same read-out and setting: for `N#Cc1ccc2c(c1)C[C@@H](NC(=O)c1cc3n(n1)CCC(CCOC(F)(F)F)O3)CO2` (single isomer, unassigned) [144 (isomer A)] the value was below 1 µM.

Molecule `N#Cc1ccc2c(c1)C[C@@H](NC(=O)c1cc3n(n1)CCC(CCOC(F)F)O3)CO2` (single isomer, unassigned) [146 (isomer A)] had a half-maximal inhibitory concentration (IC50) below 10 µM. Same read-out and setting: for `O=C(N[C@H]1COc2ccc(CC(F)F)cc2C1)c1cc2n(n1)CCC(CCOC(F)F)O2` (single isomer, unassigned) [148 (isomer A)] the value was below 1 µM. In the case of `O=C(N[C@H]1COc2ccc(COCC(F)(F)F)cc2C1)c1cc2n(n1)CCC(CCOC(F)F)O2` (single isomer, unassigned) [150 (isomer A)], the IC50 is below 1 µM. The same measure, in the same setting: the same measure for `O=C(N[C@H]1COc2ccc(COCC(F)(F)F)cc2C1)c1cc2n(n1)CCC(CN1CCC(F)(F)C1)O2` (single isomer, unassigned) [154 (isomer A)]: below 10 µM; for `N#Cc1ccc2c(c1)C[C@@H](NC(=O)c1cc3n(n1)CCC(CSC(F)(F)F)O3)CO2` (single isomer, unassigned) [156 (isomer B)]: below 10 µM. Same read-out and setting: the same measure for `O=C(N[C@H]1COc2ccc(Cl)cc2C1)c1cc2n(n1)CCC(C(F)F)O2` (single isomer, unassigned) [158 (isomer B)]: below 10 µM. On the same count and under the same terms, for `O=C(N[C@H]1COc2ccc(C(F)(F)F)cc2C1)c1cc2n(n1)CCC(C(F)F)O2` (single isomer, unassigned) [161 (isomer B)] the value was below 10 µM; for `O=C(N[C@H]1COc2ccc(COCC(F)(F)F)cc2C1)c1cc2n(n1)CCC(C(F)F)O2` (single isomer, unassigned) [163 (isomer B)], below 10 µM. The molecule `O=C(N[C@H]1COc2ccc(CCOC(F)F)cc2C1)c1cc2n(n1)CCC(C(F)F)O2` (single isomer, unassigned) [165 (isomer A)] yielded a 50% inhibitory concentration (IC50) below 1 µM.

Consider `O=C(N[C@H]1COc2ccc(CCOC(F)F)cc2C1)c1cc2n(n1)CCC(C(F)F)O2` (single isomer, unassigned) [165 (isomer B)], for which the IC50 is below 10 µM. The same measure, in the same setting: the same measure for `O=C(N[C@H]1COc2ccc(CC(F)F)cc2C1)c1cc2n(n1)CCC(C(F)(F)F)O2` (single isomer, unassigned) [173 (isomer B)]: below 10 µM; for `O=C(N[C@H]1COc2ccc(COCC(F)(F)F)cc2C1)c1cc2n(n1)CC(C(F)(F)F)O2` (single isomer, unassigned) [184 (isomer B)]: below 10 µM. On the same count and under the same terms, the same measure for `O=C(N[C@H]1COc2ccc(CC(F)(F)F)cc2C1)c1cc2n(n1)CC(COCC(F)(F)F)O2` (single isomer, unassigned) [192 (isomer B)]: below 1 µM; for `Cc1cnc(-c2ccc3c(c2)C[C@@H](NC(=O)c2cc4n(n2)CC(COCC(F)(F)F)O4)CO3)cn1` (single isomer, unassigned) [194 (isomer A)]: below 10 µM.

`O=C(N[C@H]1COc2ccc(CC(F)F)cc2C1)c1cc2n(n1)CC(COC(F)(F)F)O2` (single isomer, unassigned) [198 (isomer A)] showed a 50% inhibitory concentration (IC50) below 10 µM. On the same count and under the same terms, for `Cn1ccc(-c2ccc3c(c2)C[C@@H](NC(=O)c2cc4n(n2)CC(CCOCC(F)(F)F)O4)CO3)n1` (single isomer, unassigned) [206 (isomer A)] the value was below 1 µM; for `N#Cc1ccc2c(c1)C[C@@H](NC(=O)c1cc3n(n1)CC(CCOC(F)(F)F)O3)CO2` (single isomer, unassigned) [209 (isomer A)], below 10 µM; for `O=C(N[C@H]1COc2ccc(CC(F)F)cc2C1)c1cc2n(n1)CC(CCOC(F)(F)F)O2` (single isomer, unassigned) [211 (isomer A)], below 1 µM. On the same count and under the same terms, for `O=C(N[C@H]1COc2ccc(-c3cnccn3)cc2C1)c1cc2n(n1)CC(CCOC(F)F)O2` (single isomer, unassigned) [223 (isomer A)] the value was below 10 µM.

As for `Cc1ccc2c(c1)C[C@@H](NC(=O)c1cc3n(n1)CC(CCNCC(F)(F)F)O3)CO2` (single isomer, unassigned) [228 (isomer B)], the IC50 is below 10 µM. Molecule `O=C(N[C@H]1COc2ccc(C(F)(F)F)cc2C1)c1cc2n(n1)CC(CCNCC(F)(F)F)O2` (single isomer, unassigned) [230 (isomer B)] had an IC50 below 10 µM.

For `O=C(N[C@H]1COc2ccc(CCOC(F)F)cc2C1)c1cc2n(n1)CC(CCN1CC(F)(F)C1)O2` (single isomer, unassigned) [238 (isomer A)], the 50% inhibitory concentration (IC50) was below 1 µM. In turn, `O=C(N[C@H]1COc2ccc(CCOC(F)(F)F)cc2C1)c1cc2n(n1)CC(CCN1CC(F)(F)C1)O2` (single isomer, unassigned) [240 (isomer A)] returned an IC50 below 10 µM.

Consider `O=C(N[C@H]1COc2ccc(CCOC(F)(F)F)cc2C1)c1cc2n(n1)CC(CCN1CC(F)(F)C1)O2` (single isomer, unassigned) [240 (isomer B)], for which the 50% inhibitory concentration (IC50) is below 10 µM. On the same count and under the same terms, the same measure for `O=C(N[C@H]1COc2ccc(CC(F)(F)F)cc2C1)c1cc2n(n1)CC(CCN1CCC(F)(F)C1)O2` (single isomer, unassigned) [241 (isomer A)]: below 1 µM; for `O=C(N[C@H]1COc2ccc(C(F)(F)F)cc2C1)c1cc2n(n1)CC(CCN1CCC(F)(F)CC1)O2` (single isomer, unassigned) [242 (isomer A)]: below 1 µM; for `N#Cc1ccc2c(c1)C[C@@H](NC(=O)c1cc3n(n1)CC(CCCOC(F)F)O3)CO2` (single isomer, unassigned) [248 (isomer B)]: below 10 µM.

`N#Cc1ccc2c(c1)C[C@@H](NC(=O)c1cc3n(n1)CCC(OC(F)(F)F)CO3)CO2` (single isomer, unassigned) [253 (isomer A)] returned an IC50 below 10 µM. Still for that read-out and setting: for `N#Cc1ccc2c(c1)C[C@@H](NC(=O)c1cc3n(n1)CCC(OC(F)(F)F)CO3)CO2` (single isomer, unassigned) [253 (isomer B)] the value was below 10 µM; for `N#Cc1ccc2c(c1)C[C@@H](NC(=O)c1cc3n(n1)CCC(OCC(F)(F)F)CO3)CO2` (single isomer, unassigned) [255 (isomer A)], below 10 µM; for `O=C(N[C@H]1COc2ccc(C(F)(F)F)cc2C1O)c1cc2n(n1)CCC(C(F)F)O2` (single isomer, unassigned) [534 (isomer A)], below 10 µM. Molecule `O=C(N[C@H]1COc2ccc(C(F)(F)F)cc2C1O)c1cc2n(n1)CCC(C(F)F)O2` (single isomer, unassigned) [534 (isomer B)] returned an IC50 below 10 µM. Consider `CC(C)(F)C1CCn2nc(C(=O)N[C@H]3COc4ccc(C#N)cc4C3)cc2O1` (single isomer, unassigned) [547 (isomer B)], for which the IC50 was below 10 µM.
